# Patent US20260193219A1, “TRIAZINE DERIVATIVES FOR TREATING DISEASES RELATING TO NEUROTROPHINS” (AlzeCure Pharma AB, priority 2020, published 2026)
# How the values were obtained:
# TrkA = biological target: T1, TrkA (Homo sapiens, UniProt P04629); experiment: In vitro Trk receptor modulation assay (Enzyme Fragment Complementation), U2OS cells over-expressing TrkA; type: cell-based; conditions: compound pre-mixed with ligand (NGF), final 10 ng/mL, 3 hours, modulator mode
# T1 construct: expressed in transfected cells; host or cells: U2OS
# Text: (§1) A high throughput cell-based screen was used to identify positive modulators of TrkA and TrkB. The screen involves the use of cell-based assay overexpressing TrkA, or TrkB. The purpose of the assay is to identify compounds that modulate neurotrophin signalling (Forsell et al 2012). The assay can be used in inhibitor mode using a high concentration of ligand, in modulator mode using an intermediate concentration and in agonist mode using a low concentration of ligand.
# (§2) The assay uses Enzyme Fragment Complementation (EFC) technique, which is a proximity-based assay. Briefly, cells used in this assay over-express two fusion proteins, i.e. the receptor, which can be one of TrkA or TrkB fused to a small peptide of beta-galactosidase and an adaptor protein, i.e. SHC1 (or any other Trk-adaptor protein) fused to the major part of beta-galactosidase. […] The proximity between the small activating peptide on the receptor and the major part of beta-galactosidase on the adaptor protein leads to an active beta-galactosidase enzyme. The activation of the receptor is quantified by measuring the amount of active beta-galactosidase by its conversion of a non-luminescent substrate into a luminescent product.
# (§3) U2OS-cells, over-expressing TrkA or TrkB, were plated in 96- or 384-well plates and incubated overnight. On the following day, test compound was pre-mixed with ligand (NGF) and the ligand-compound mixture is then added to the cells to yield a final ligand concentration of 10 ng/mL. After 3 hours of incubation at room temperature, the incubation is stopped by the addition of a beta-galactosidase substrate mixture containing detergents. The substrate mixture is incubated for 60 minutes at ambient temperature. The luminescence is thereafter read by the use of a plate reader.
# TrkB = biological target: T2, TrkB (Homo sapiens, UniProt Q16620); experiment: In vitro Trk receptor modulation assay (Enzyme Fragment Complementation), U2OS cells over-expressing TrkB; type: cell-based; conditions: compound pre-mixed with ligand (NGF), final 10 ng/mL, 3 hours, modulator mode
# T2 construct: expressed in transfected cells; host or cells: U2OS
# Text: as §1, §2, §3
# [1] = Human liver microsomal stability; type: in vitro ADME; conditions: human liver microsomes 0.5 mg/mL, 3 μM compound, NADPH, 37° C.
# Protocol: A 10 mM stock solution (in DMSO) was prepared for each compound. From the intermediate stock solution of 2 mM, a working solution of 0.5 mM was prepared by diluting the compound in Acetonitrile:water (50:50). The compound (1.8 μL of working solution) was spiked in 0.1 M potassium phosphate buffer (260.7 μL), pH 7.4 at a concentration of 3 μM (0.1% DMSO). Following this, human liver microsomes (pooled, Invitrogen, #HMMCPL) (7.5 μL; final protein conc. 0.5 mg/mL) were added. The aforementioned sample was incubated at 37° C. for 5 min. Subsequently, 30 μL of 10 mM NADPH prepared in 0.1 M potassium phosphate buffer was added (as a co-factor) to initiate the reaction. The samples were then incubated at 37° C. for 0, 20, 40, 60 and 120 min.
# At each time point (0, 20, 40, 60 and 120 min), 40 μL of the samples were withdrawn and reactions were stopped using 360 μL chilled acetonitrile or methanol containing suitable internal standard (Carbamazepine). The samples were centrifuged and the supernatants was analyzed in duplicate by LC-MS/MS. The percent compound remaining at each time point was calculated with respect to that of the 0 min sample. Control samples were run without NADPH for initial and final time point and blank samples was prepared using DMSO (without the test compound).
# For comparison, the experiment was also performed with known Trk receptor signalling modulator 1-methyl-3-[3-methyl-4-(4-trifluoromethanesulfonylphenoxy)phenyl]-1,3,5-triazinane-2,4,6-trione) (ponazuril). Ponazuril is metabolized very slowly in vivo and this prolonged exposure creates an increased risk of side effects if the compound is administered systemically. This causes significant challenges to the development of the compound as a systemic drug.
# T1 sequence (P04629 33-796): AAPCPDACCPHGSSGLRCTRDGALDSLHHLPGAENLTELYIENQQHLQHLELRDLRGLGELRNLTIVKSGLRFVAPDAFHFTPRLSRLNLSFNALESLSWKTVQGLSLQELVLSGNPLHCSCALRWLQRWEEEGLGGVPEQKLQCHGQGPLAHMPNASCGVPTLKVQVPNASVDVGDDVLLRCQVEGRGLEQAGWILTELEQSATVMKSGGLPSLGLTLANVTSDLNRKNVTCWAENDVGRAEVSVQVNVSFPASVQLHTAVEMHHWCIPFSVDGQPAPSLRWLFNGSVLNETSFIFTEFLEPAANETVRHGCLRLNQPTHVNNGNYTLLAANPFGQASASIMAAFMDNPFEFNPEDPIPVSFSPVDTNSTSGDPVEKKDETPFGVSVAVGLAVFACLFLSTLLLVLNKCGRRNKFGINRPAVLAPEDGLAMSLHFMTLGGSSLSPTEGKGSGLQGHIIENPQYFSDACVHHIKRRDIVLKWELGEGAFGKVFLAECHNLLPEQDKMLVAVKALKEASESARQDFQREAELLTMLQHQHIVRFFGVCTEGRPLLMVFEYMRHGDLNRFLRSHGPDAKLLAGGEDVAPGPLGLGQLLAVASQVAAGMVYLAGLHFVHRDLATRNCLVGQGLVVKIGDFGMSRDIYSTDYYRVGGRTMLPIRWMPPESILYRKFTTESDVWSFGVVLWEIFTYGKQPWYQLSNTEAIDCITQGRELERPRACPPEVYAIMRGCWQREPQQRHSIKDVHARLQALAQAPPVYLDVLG
# T2 sequence (Q16620 32-822): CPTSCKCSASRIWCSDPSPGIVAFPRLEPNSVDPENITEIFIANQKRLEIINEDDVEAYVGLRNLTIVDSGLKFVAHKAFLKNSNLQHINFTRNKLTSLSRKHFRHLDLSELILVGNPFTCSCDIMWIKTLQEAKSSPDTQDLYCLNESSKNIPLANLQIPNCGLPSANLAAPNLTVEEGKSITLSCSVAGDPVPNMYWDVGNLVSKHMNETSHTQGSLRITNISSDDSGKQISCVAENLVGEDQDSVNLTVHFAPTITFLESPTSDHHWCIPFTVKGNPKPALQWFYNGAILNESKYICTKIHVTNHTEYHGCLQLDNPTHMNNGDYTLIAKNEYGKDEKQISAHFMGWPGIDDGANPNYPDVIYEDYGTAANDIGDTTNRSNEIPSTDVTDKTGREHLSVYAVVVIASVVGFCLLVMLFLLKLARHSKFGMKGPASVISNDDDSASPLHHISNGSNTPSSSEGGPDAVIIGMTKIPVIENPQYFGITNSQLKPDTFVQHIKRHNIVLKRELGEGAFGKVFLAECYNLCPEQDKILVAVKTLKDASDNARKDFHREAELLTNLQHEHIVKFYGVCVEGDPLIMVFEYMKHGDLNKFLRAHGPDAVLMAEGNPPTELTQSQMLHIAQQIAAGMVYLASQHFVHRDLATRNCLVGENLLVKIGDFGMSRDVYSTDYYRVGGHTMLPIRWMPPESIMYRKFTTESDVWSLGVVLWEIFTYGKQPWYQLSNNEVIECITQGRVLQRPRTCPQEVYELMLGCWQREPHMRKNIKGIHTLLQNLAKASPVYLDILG
SMILES,EC50 (TrkA) [nM],EC50 (TrkB) [nM],% of parent compound metabolized after 120 min [1] [%]
"Cc1cccc(-n2c(=O)[nH]c(=O)n(-c3ccc(Oc4ccccc4)c(OCC(=O)N4CCCC4)c3)c2=O)c1 [Example 9, 1-(3-methylphenyl)-3-{3-[2-oxo-2-(pyrrolidin-1-yl)ethoxy]-4-phenoxyphenyl}-1,3,5-triazinane-2,4,6-trione]",210,150,82.8
"Cc1cccc(-n2c(=O)[nH]c(=O)n(-c3ccc(Oc4ccccc4)c(OCC(=O)N4CCOCC4)c3)c2=O)c1 [Example 11, 1-(3-methylphenyl)-3-{3-[2-(morpholin-4-yl)-2-oxoethoxy]-4-phenoxyphenyl}-1,3,5-triazinane-2,4,6-trione]",270,180,57.3
"Cc1cccc(-n2c(=O)[nH]c(=O)n(-c3ccc(Oc4ccccc4)c(CN4CCNC4=O)c3)c2=O)c1 [Example 5, 1-(3-methylphenyl)-3-{3-[(2-oxoimidazolidin-1-yl)methyl]-4-phenoxyphenyl}-1,3,5-triazinane-2,4,6-trione]",300,120,15.4
"CCc1cc(-n2c(=O)[nH]c(=O)n(-c3ccccc3)c2=O)ccc1Oc1ccccc1 [Example 6, 1-(3-ethyl-4-phenoxyphenyl)-3-phenyl-1,3,5-triazinane-2,4,6-trione]",210,220,
"CCc1cc(-n2c(=O)[nH]c(=O)n(-c3cccc(C)c3)c2=O)ccc1Oc1ccccc1 [Example 7, 1-(3-ethyl-4-phenoxyphenyl)-3-(3-methylphenyl)-1,3,5-triazinane-2,4,6-trione]",130,90,48.8
"Cc1cc2cccc(-n3c(=O)[nH]c(=O)n(-c4ccc(Oc5ccccc5)c(C)c4)c3=O)c2o1 [Example 4, 1-(2-methyl-1-benzofuran-7-yl)-3-(3-methyl-4-phenoxyphenyl)-1,3,5-triazinane-2,4,6-trione]",300,270,37.7
"COc1ccc(-n2c(=O)[nH]c(=O)n(-c3ccc(Oc4ccccc4)c(C)c3)c2=O)cc1 [Example 8, 1-(4-methoxyphenyl)-3-(3-methyl-4-phenoxyphenyl)-1,3,5-triazinane-2,4,6-trione]",350,230,

# More lines, now with the values ahead:
EC50 (TrkA) [nM],EC50 (TrkB) [nM],% of parent compound metabolized after 120 min [1] [%],SMILES
,,3.1,"Cc1cc(-n2c(=O)[nH]c(=O)n(C)c2=O)ccc1Oc1ccc(S(=O)(=O)C(F)(F)F)cc1 [ponazuril, 1-methyl-3-[3-methyl-4-(4-trifluoromethanesulfonylphenoxy)phenyl]-1,3,5-triazinane-2,4,6-trione, reference compound]"
650,300,53.4,"CSc1cc(-n2c(=O)[nH]c(=O)n(-c3cccc(C)c3)c2=O)ccc1Oc1ccccc1 [Example 14, 1-(3-methylphenyl)-3-[3-(methylsulfanyl)-4-phenoxyphenyl]-1,3,5-triazinane-2,4,6-trione]"
410,220,,"Cc1cccc(-n2c(=O)[nH]c(=O)n(-c3ccc(Oc4ccccc4)c(OCC(=O)N4CCC4)c3)c2=O)c1 [Example 12, 1-{3-[2-(azetidin-1-yl)-2-oxoethoxy]-4-phenoxyphenyl}-3-(3-methylphenyl)-1,3,5-triazinane-2,4,6-trione]"
40,110,29.6,"Cc1cccc(-n2c(=O)[nH]c(=O)n(-c3ccc(Oc4ccccc4)c(CN4CCCC4=O)c3)c2=O)c1 [Example 15, 1-(3-methylphenyl)-3-{3-[(2-oxopyrrolidin-1-yl)methyl]-4-phenoxyphenyl}-1,3,5-triazinane-2,4,6-trione]"
640,380,4.7,"CSc1cc(-n2c(=O)[nH]c(=O)n(-c3ccccc3)c2=O)ccc1Oc1ccccc1 [Example 13, 1-[3-(methylsulfanyl)-4-phenoxyphenyl]-3-phenyl-1,3,5-triazinane-2,4,6-trione]"
